For 19 molecules, IC50 results are on record in US20240067662A1, “KRAS INHIBITORS” (Bristol-Myers Squibb Company, priority 2022, published 2024).

The term IC50 denotes the concentration that gives 50% inhibition.

The assay deals with GMPPNP-loaded KRAS G12C (Homo sapiens, UniProt P01116, G12C). Description: KRAS G12C RAF Disruption Assay (HTRF). The settings on record: recombinant GMPPNP-loaded KRAS G12C (5 nM), 20 min with compound; GST-RAF1 RBD (9 nM); HTRF signal; read-out: KRASG12C RAF Disruption Assay (IC50). The format is biochemical. The procedure, abridged: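 The read-out is an HTRF 520/495 emission ratio, with IC50 taken from dose-response curves. Compound was first incubated for 20 min at room temperature with active-state KRAS G12C (GMPPNP, 5 nM) in Tris pH 7.5/NaCl/MgCl2/DTT/BSA. RAF1 RBD-GST (9 nM, 20 min) and SA-Tb (0.25 nM, 3 h) were added in turn.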
Chain of GMPPNP-loaded KRAS G12C (P01116 1-188 isoform P01116-2 G12C): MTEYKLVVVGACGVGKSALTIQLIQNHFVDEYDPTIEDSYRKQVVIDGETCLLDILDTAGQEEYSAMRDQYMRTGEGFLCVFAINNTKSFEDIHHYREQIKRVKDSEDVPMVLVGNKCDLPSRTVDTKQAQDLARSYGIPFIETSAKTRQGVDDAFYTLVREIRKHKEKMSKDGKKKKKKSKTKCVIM
Turning to `C#Cc1cccc2cccc(-c3ncc4c(N5CCN(C(=O)/C(F)=C/c6cncc(C)n6)CC5)nc(OC[C@@]56CCCN5C[C@H](F)C6)nc4c3F)c12` [Compound 125, (Z)-1-(4-(7-(8-ethynylnaphthalen-1-yl)-8-fluoro-2-(((2R, 7aS)-2-fluorotetrahydro-1H-pyrrolizin-7a(5H)-yl)methoxy)pyrido[4,3-d]pyrimidin-4-yl)piperazin-1-yl)-2-fluoro-3-(6-methylpyrazin-2-yl)prop-2-en-1-one], the IC50 is 480 nM.

For the molecule `Cn1ncc2cccc(-c3ncc4c(N5CCN(C(=O)/C(F)=C/c6nccs6)[C@@H](CC#N)C5)nc(OC[C@@]56CCCN5C[C@H](F)C6)nc4c3F)c21` [Example 52, 2-((S)-4-(8-fluoro-2-(((2R, 7aS)-2-fluorotetrahydro-1H-pyrrolizin-7a(5H)-yl)methoxy)-7-(1-methyl-1H-indazol-7-yl)pyrido[4,3-d]pyrimidin-4-yl)-1-((Z)-2-fluoro-3-(thiazol-2-yl)acryloyl)piperazin-2-yl)acetonitrile], the IC50 was determined as 430 nM.

As to `C#Cc1c(F)ccc2cc(O)cc(-c3ncc4c(N5C[C@H]6CC[C@@H](C5)N6C(=O)/C(F)=C/c5ncco5)nc(OC[C@@]56CCCN5C[C@H](F)C6)nc4c3F)c12` [Compound 4, (Z)-1-((1R, 5S)-3-(7-(8-ethynyl-7-fluoro-3-hydroxynaphthalen-1-yl)-8-fluoro-2-(((2R, 7aS)-2-fluorotetrahydro-1H-pyrrolizin-7a(5H)-yl)methoxy)pyrido[4,3-d]pyrimidin-4-yl)-3,8-diazabicyclo[3.2.1]octan-8-yl)-2-fluoro-3-(oxazol-2-yl)prop-2-en-1-one], the 50% inhibitory concentration (IC50) is 260 nM.

`Cn1ncc2cccc(-c3ncc4c(N5CCN(C(=O)/C(F)=C/c6nccs6)CC5)nc(OC[C@@]56CCCN5C[C@H](F)C6)nc4c3F)c21` [Example 39, (Z)-2-fluoro-1-(4-(8-fluoro-2-(((2R, 7aS)-2-fluorotetrahydro-1H-pyrrolizin-7a(5H)-yl)methoxy)-7-(I-methyl-1H-indazol-7-yl)pyrido[4,3-d]pyrimidin-4-yl)piperazin-1-yl)-3-(thiazol-2-yl)prop-2-en-1-one]: the IC50 was determined as 5100 nM.

With `C#Cc1cccc2cccc(-c3ncc4c(N5CC[C@@H]6CN(C(=O)/C(F)=C/c7ncccn7)C[C@@H]65)nc(OC[C@@]56CCCN5C[C@H](F)C6)nc4c3F)c12` [Compound 86, (Z)-1-((3aR, 6aR)-1-(7-(8-ethynylnaphthalen-1-yl)-8-fluoro-2-(((2R, 7aS)-2-fluorotetrahydro-1H-pyrrolizin-7a(5H)-yl)methoxy)pyrido[4,3-d]pyrimidin-4-yl)hexahydropyrrolo[3,4-b]pyrrol-5(1H)-yl)-2-fluoro-3-(pyrimidin-2-yl)prop-2-en-1-one], the IC50 stood at 110 nM.

For `C#Cc1cccc2cccc(-c3ncc4c(N(C)C5CCN(C(=O)/C(F)=C/c6ccccn6)C5C)nc(OC[C@@]56CCCN5C[C@H](F)C6)nc4c3F)c12` (single isomer, unassigned) [Example 74 trans isomer 2], the IC50 came out at 110 nM.

`C#Cc1ccc(F)c2cccc(-c3ncc4c(N5CCN(C(=O)/C(F)=C/c6ncccn6)CC5)nc(OC[C@@]56CCCN5C[C@H](F)C6)nc4c3F)c12` [Compound 97, (Z)-1-(4-(7-(8-ethynyl-5-fluoronaphthalen-1-yl)-8-fluoro-2-(((2R, 7aS)-2-fluorotetrahydro-1H-pyrrolizin-7a(5H)-yl)methoxy)pyrido[4,3-d]pyrimidin-4-yl)piperazin-1-yl)-2-fluoro-3-(pyrimidin-2-yl)prop-2-en-1-one]: the IC50 came to 550 nM.

Regarding `C#Cc1c(F)ccc2cc(O)cc(-c3ncc4c(N5C[C@H]6CC[C@@H](C5)N6C(=O)/C(F)=C/c5cccc(COC)n5)nc(OC[C@@]56CCCN5C[C@H](F)C6)nc4c3F)c12` [Compound 15, (Z)-1-((1R, 5S)-3-(7-(8-ethynyl-7-fluoro-3-hydroxynaphthalen-1-yl)-8-fluoro-2-(((2R, 7aS)-2-fluorotetrahydro-1H-pyrrolizin-7a(5H)-yl)methoxy)pyrido[4,3-d]pyrimidin-4-yl)-3,8-diazabicyclo[3.2.1]octan-8-yl)-2-fluoro-3-(6-(methoxymethyl)pyridin-2-yl)prop-2-en-1-one], the IC50 was 60 nM.

With `C#Cc1c(F)c(F)cc2cccc(-c3ncc4c(N5CCN(C(=O)/C(F)=C/c6ccccn6)CC5)nc(OC[C@@]56CCCN5C[C@H](F)C6)nc4c3F)c12` [Compound 99, (Z)-1-(4-(7-(8-ethynyl-6,7-difluoronaphthalen-1-yl)-8-fluoro-2-(((2R, 7aS)-2-fluorotetrahydro-IH-pyrrolizin-7a(5H)-yl)methoxy)pyrido[4,3-d]pyrimidin-4-yl)piperazin-1-yl)-2-fluoro-3-(pyridin-2-yl)prop-2-en-1-one], the IC50 was 70 nM.

For `C#Cc1cccc2cccc(-c3ncc4c(N5CCN(C(=O)/C(F)=C/c6ccccn6)C[C@H]5C)nc(OC[C@@]56CCCN5C[C@H](F)C6)nc4c3F)c12` [Example 75, (Z)-1-((3R)-4-(7-(8-ethynylnaphthalen-1-yl)-8-fluoro-2-(((2R, 7aS)-2-fluorotetrahydro-1H-pyrrolizin-7a(5H)-yl)methoxy)pyrido[4,3-d]pyrimidin-4-yl)-3-methylpiperazin-1-yl)-2-fluoro-3-(pyridin-2-yl)prop-2-en-1-one], the IC50 stood at 57 nM.

`CN(c1nc(OC[C@@]23CCCN2C[C@H](F)C3)nc2c(F)c(-c3cccc4cccc(C#N)c34)ncc12)[C@@H]1CCN(C(=O)/C(F)=C/c2nccs2)C1` [Compound 114, 8-(8-fluoro-4-(((R)-1-((Z)-2-fluoro-3-(thiazol-2-yl)acryloyl)pyrrolidin-3-yl)(methyl)amino)-2-(((2R, 7aS)-2-fluorotetrahydro-1H-pyrrolizin-7a(5H)-yl)methoxy)pyrido[4,3-d]pyrimidin-7-yl)-1-naphthonitrile]: the IC50 turned out to be 719 nM.

Regarding `C#Cc1cccc2cccc(-c3ncc4c(N(C)C5CCN(C(=O)/C(F)=C/c6nccs6)C5C)nc(OC[C@@]56CCCN5C[C@H](F)C6)nc4c3F)c12` (single isomer, unassigned) [Example 73 trans isomer 2], the IC50 stood at 5700 nM.

Take `N#CC[C@H]1CN(c2nc(OC[C@@]34CCCN3C[C@H](F)C4)nc3c(F)c(-c4cc(F)ccc4C(F)(F)F)ncc23)CCN1C(=O)/C(F)=C/c1ccccn1` [Example 44, 2-((S)-1-((Z)-2-fluoro-3-(pyridin-2-yl)acryloyl)-4-(8-fluoro-7-(5-fluoro-2-(trifluoromethyl)phenyl)-2-(((2R, 7aS)-2-fluorotetrahydro-1H-pyrrolizin-7a(5H)-yl)methoxy)pyrido[4,3-d]pyrimidin-4-yl)piperazin-2-yl)acetonitrile]: the IC50 was 360 nM.

For `C#Cc1cccc2c(F)ccc(-c3ncc4c(N5CCN(C(=O)/C(F)=C/c6ccccn6)CC5)nc(OC[C@@]56CCCN5C[C@H](F)C6)nc4c3F)c12` [Compound 87, (Z)-1-(4-(7-(8-ethynyl-4-fluoronaphthalen-1-yl)-8-fluoro-2-(((2R, 7aS)-2-fluorotetrahydro-1H-pyrrolizin-7a(5H)-yl)methoxy)pyrido[4,3-d]pyrimidin-4-yl)piperazin-1-yl)-2-fluoro-3-(pyridin-2-yl)prop-2-en-1-one], the IC50 is 1600 nM.

On to `C#Cc1c(F)ccc2cc(O)cc(-c3ncc4c(N5CCN(C(=O)/C(F)=C/c6nccs6)C[C@@H]5C)nc(OC[C@@]56CCCN5C[C@H](F)C6)nc4c3F)c12` [Example 64, (Z)-1-((S)-4-(7-(8-ethynyl-7-fluoro-3-hydroxynaphthalen-1-yl)-8-fluoro-2-(((2R, 7aS)-2-fluorotetrahydro-1H-pyrrolizin-7a(5H)-yl)methoxy)pyrido[4,3-d]pyrimidin-4-yl)-3-methylpiperazin-1-yl)-2-fluoro-3-(thiazol-2-yl)prop-2-en-1-one], for which the IC50 turned out to be 7 nM.

For the molecule `C#Cc1c(F)ccc2cc(O)cc(-c3ncc4c(N5C[C@H]6CC[C@@H](C5)N6C(=O)/C(F)=C/c5cccc(OC)n5)nc(OC[C@@]56CCCN5C[C@H](F)C6)nc4c3F)c12` [Compound 17, (Z)-1-((1R, 5S)-3-(7-(8-ethynyl-7-fluoro-3-hydroxynaphthalen-1-yl)-8-fluoro-2-(((2R, 7aS)-2-fluorotetrahydro-1H-pyrrolizin-7a(5H)-yl)methoxy)pyrido[4,3-d]pyrimidin-4-yl)-3,8-diazabicyclo[3.2.1]octan-8-yl)-2-fluoro-3-(6-methoxypyridin-2-yl)prop-2-en-1-one], the IC50 came to 2600 nM.

For `CN1CCC[C@H]1COc1nc(N2CCN(C(=O)/C(F)=C/c3ccccn3)[C@@H](CC#N)C2)c2cnc(-c3cccc4ccc(F)cc34)c(F)c2n1` [Example 36, 2-((S)-1-((Z)-2-fluoro-3-(pyridin-2-yl)acryloyl)-4-(8-fluoro-7-(7-fluoronaphthalen-1-yl)-2-(((S)-1-methylpyrrolidin-2-yl)methoxy)pyrido[4,3-d]pyrimidin-4-yl)piperazin-2-yl)acetonitrile], the IC50 is 150 nM.

With `C#Cc1cccc2cccc(-c3ncc4c(N5CC6(CCN(C(=O)/C(F)=C/c7ccccn7)CC6)C5)nc(OC[C@@]56CCCN5C[C@H](F)C6)nc4c3F)c12` [Compound 91, (Z)-1-(2-(7-(8-ethynylnaphthalen-1-yl)-8-fluoro-2-(((2R, 7aS)-2-fluorotetrahydro-1H-pyrrolizin-7a(5H)-yl)methoxy)pyrido[4,3-d]pyrimidin-4-yl)-2,7-diazaspiro[3.5]nonan-7-yl)-2-fluoro-3-(pyridin-2-yl)prop-2-en-1-one], the IC50 stood at 5000 nM.

For `CN1CCC[C@H]1COc1nc(N2CCN(C(=O)/C(F)=C/c3nccs3)[C@@H](CC#N)C2)c2cnc(-c3cccc4cccc(Cl)c34)c(F)c2n1` [Compound 21A, 2-((S)-4-(7-(8-chloronaphthalen-1-yl)-8-fluoro-2-(((S)-1-methylpyrrolidin-2-yl)methoxy)pyrido[4,3-d]pyrimidin-4-yl)-1-((Z)-2-fluoro-3-(thiazol-2-yl)acryloyl)piperazin-2-yl)acetonitrile], the IC50 was determined as 67 nM.
